Test results reported in patent US4350702A, “Method of inhibiting platelet aggregation” (Beecham Group Limited, priority 1975, dated 1982).
Where a name gives a salt, the structure may show the parent alone.

Tested on: platelet aggregation in response to collagen (human platelet-rich plasma)
Assay: Inhibition of collagen-induced platelet aggregation in vitro (human platelet-rich plasma, photometric aggregometer)
Assay type: cell-based
Conditions: 0.05 h, final concentration 100 μM, human PRP, 37°, 3 min incubation before collagen, just-maximal collagen dose, read-out: % Inhibition of the platelet aggregation response to collagen
Protocol: The compounds of the Examples above were tested for their ability to inhibit platelet aggregation in vitro as follows:
Platelet-rich-plasma (PRP) is prepared by centrifuging the anti-coagulated blood at 180 g., for 12 minutes, at room temperature. Collagen (3×-bovine achilles tendon) is suspended in 0.9% (w/v) saline, using a commercially available mixer emulsifier. PRP was mixed with 0.1 volumes saline (control) or compound dissolved in saline and incubated at 37° for 3 minutes, before the addition of collagen. Water-insoluble compounds were added to PRP, dissolved in 0.005 volumes dimethylformamide, the solvent being included in controls when appropriate. The final concentration of each compound was 100 μM.
The activity of each compound was expressed as percentage inhibition of the aggregation response to a dose of collagen producing a just-maximal change in light transmission in control PRP.

| Structure (SMILES) | inhibition at 100 µM |
| --- | --- |
| O=c1c2cc(Cl)ccc2sn1CCc1ccccn1 [Example 1, 5-Chloro-2[β-(2-pyridyl)ethyl]-1,2-benzisothiazol-3-one hydrochloride] | 100% |
| COc1cc2sn(CCN3CC4CCC(CC4)C3)c(=O)c2cc1OC [Example 15, 5,6-dimethoxy-2-β-(3-azabicyclo[3.2.2]non-3-yl)ethyl 1,2-benzisothiazol-3-one] | 92% |
| O=c1c2ccccc2sn1CCn1sc2ccccc2c1=O [Example 21, 1,2-bis(1,2-benzisothiazol-3-on-2-yl)ethane] | 91% |
| CC1CCCCN1CCn1sc2ccccc2c1=O (stereo not shown) [Example 27] | 100% |
| O=c1c2ccccc2sn1CCN1CCCCCC1 [Example 19, 2-β-(homopiperidin-1-yl)ethyl-1,2-benzisothiazol-3-one hydrochloride] | 92% |
| O=c1c2ccccc2sn1CCN1CCc2ccccc2C1 [Example 20, 2-β-(N-tetrahydroisoquinolylethyl)-1,2-benzisothiazol-3-one hydrochloride] | 100% |
| O=c1c2ccccc2sn1CCc1ccccn1 [Example 9, 2-(β-2'-pyridylethyl)-1,2-benzisothiazol-3-one hydrochloride] | 100% |
| O=c1c2ccccc2sn1N1CCOCC1 [Example 5, 2-(morpholino)-1,2-benzisothiazol-3-one] | 100% |
| Cc1ccc2sn(CCc3ccccn3)c(=O)c2c1 [Example 10, 5-methyl-2-(β-2'-pyridylethyl)-1,2-benzisothiazol-3-one hydrochloride] | 100% |
| O=c1c2ccccc2sn1CNc1ccncc1 [Example 23, 2-[4'-pyridylaminomethyl]-1,2-benzisothiazol-3-one] | 23% |
| O=c1c2cc(Cl)ccc2sn1-c1ccccn1 [Example 6] | 100% |
| O=c1c2cc(Cl)c(Cl)cc2sn1CCN1CC2CCC(CC2)C1 [Example 14, 5,6-dichloro-2-β-(3-azabicyclo[3.2.2]non-3-yl)ethyl-1,2-benzisothiazol-3-one] | 100% |
| O=c1c2cc(Cl)ccc2sn1-c1ncccn1 [Example 7] | 100% |
| O=c1c2ccccc2sn1CNc1ccccn1 [Example 4, 2-[2'-Pyridylaminomethyl]-1,2-benzisothiazol-3-one] | 100% |
| COc1cc2sn(CCc3ccccn3)c(=O)c2cc1OC [Example 3, 5,6-Dimethoxy-2[β-(2-pyridyl)ethyl]-1,2-benzisothiazol-3-one] | 100% |
| O=c1c2ccccc2sn1CCCCCCN1CC2CCC(CC2)C1 [Example 2, 2-[6-(3-azabicyclo[3.2.2]non-3-yl)-hexyl]-1,2-benzisothiazlol-3-one hydrochloride] | 100% |
| O=c1c2cc(Cl)c(Cl)cc2sn1CCc1ccccn1 [Example 12] | 100% |
| COc1cc2sn(CCN3CCCC3)c(=O)c2cc1OC [Example 18] | 91% |
| O=c1c2ccccc2sn1CCN1CC2CCC(CC2)C1 [Example 13, 2-β-(3-azabicyclo[3.2.2]non-3-yl)ethyl-1,2-benzisothiazol-3-one hydrochloride] | 100% |
| O=c1c2ccc(Cl)cc2sn1CCc1ccccn1 [Example 11, 6-chloro-2-(β-2'-pyridylethyl)-1,2-benzisothiazol-3-one hydrochloride] | 100% |
| O=c1c2cc(Cl)c(Cl)cc2sn1CCN1CCCC1 [Example 16, 5,6-dichloro-2-β-(1-pyrrolidinyl)ethyl-1,2-benzisothiazol-3-one] | 100% |

Same assay, conditions: Homo sapiens, 0.05 h, read-out: % Inhibition of the platelet aggregation response to collagen

| Structure (SMILES) | inhibition at 100 µM |
| --- | --- |
| O=c1c2ccccc2sn1-c1nccs1 [Example 8, 2-(thiazol-2-yl)-1,2-benzisothiazol-3-one] | 100% |
